For 24 compounds, IC50 results are on record in patent US20020193377A1, “Quinazolines as MMP-13 inhibitors” (priority 2001, published 2002).

This assay deals with T1, human collagenase-3 catalytic domain enzyme (MMP13) (Homo sapiens, UniProt P45452).
T1 construct: human collagenase-3 catalytic domain enzyme
Description: MMP13CD Thiopeptolide Assay. It counts as biochemical. On the procedure: MMP13CD Thiopeptolide Assay: Proteolysis of the thiopeptolide substrate Ac-Pro-Leu-Gly-thioester-Leu-Leu-Gly-OEt is used as the primary screen to determine IC50 values for MMP13 inhibitors. A 100 μl reaction contains 50 mM HEPES, 10 mM CaCl2, pH 7.0 (RT), 1 mM 5,5′-dithiobis(2-nitrobenzoic acid) (DTNB), 100 μM substrate, inhibitor in 2.0% DMSO and 2.5 nM human collagenase-3 catalytic domain enzyme. Inhibitors are screened from 100 μM to 0.5 nM. […] Percentage of control velocity in inhibited treatments is plotted against inhibitor concentration to calculate IC50 values.
One may read the IC50 as the point on the concentration scale where inhibition reaches its midpoint. The low end stands for greater potency in that assay, the high end for weaker potency in that assay. With `O=C(NCc1cccnc1)c1ccc2[nH]c(=O)n(Cc3ccccc3)c(=O)c2c1` [Example 5, 3-Benzyl-2,4-dioxo-1,2,3,-tetrahydroquinazoline-6-carboxylic acid (3-pyridylmethyl)amide], the IC50 is 193 nM.

As for `COc1ccc(CNC(=O)c2ccc3[nH]c(=O)n(Cc4ccccc4)c(=O)c3c2)cc1` [Example 6, 3-Benzyl-2,4-dioxo-1,2,3,4-tetrahydroquinazoline-6-carboxylic acid 4-methoxybenzylamide], the half-maximal inhibitory concentration (IC50) turned out to be 183 nM.

Consider `O=C(NCc1ccc(Cl)cc1)c1ccc2[nH]c(=O)n(Cc3ccccc3)c(=O)c2c1` [Example 7, 3-Benzyl-2,4-dioxo-1,2,3,4-tetrahydroquinzaoline-6carboxylic acid 4-chlorobenzylamide], for which half-maximal inhibition (IC50) was put at 21 nM. On to `Cc1ccc(CNC(=O)c2ccc3[nH]c(=O)n(Cc4ccccc4)c(=O)c3c2)cc1` [Example 8, 3-Benzyl-2,4-dioxo-1,2,3,4-tetrahydroquinazoline-6-carboxylic acid 4-methylbenzylamide], for which 1870 nM corresponded to half-maximal inhibition (IC50). In turn, `Cn1c(=O)n(Cc2ccccc2)c(=O)c2cc(C(=O)NCc3ccc4c(c3)OCO4)ccc21` [Example 9, 3-Benzyl-1-methyl-2,4-dioxo-1,2,3,4-tetrahydroquinazoline-6-carboxylic acid (benzo[1,3]dioxol-5-ylmethyl)amide] came in with a half-inhibitory concentration (IC50) of 366 nM. `Cn1c(=O)n(Cc2ccccc2)c(=O)c2cc(C(=O)NCc3ccccc3)ccc21` [Example 10, 3-Benzyl-1-methyl-2,4-dioxo-1,2,3,4-tetrahydroquinazoline-6carboxylic acid benzylamide] showed an IC50 of 49 nM. As for `COC(=O)c1ccc(CNC(=O)c2ccc3c(c2)c(=O)n(Cc2ccccc2)c(=O)n3C)cc1` [Example 11, Methyl 4-({[1-(3-benzyl-1-methyl-2,4-dioxo-1,2,3,4-tetrahydroquinazolin-6-yl)methanoyl]amino}methyl)benzoate], the IC50 is 167 nM. In turn, `COc1cc(CNC(=O)c2ccc3c(c2)c(=O)n(Cc2ccccc2)c(=O)n3C)ccc1O` [Example 12, 3-Benzy-1-methyl-2,4-dioxo-1,3,3,4-tetrahydroquinazoline-6-carboxylic acid 4-hydroxy-3-methoxybenzylamide] displayed an IC50 of 1320 nM. Compound `COc1ccc(CNC(=O)c2ccc3c(c2)c(=O)n(Cc2ccccc2)c(=O)n3C)cc1` [Example 13, 3-Benzyl-1-methyl-2,4-dioxo-1,2,3,4-tetrahydroquinazoline-6-carboxylic acid 4-methoxybenzylamide] yielded a concentration for half-maximal inhibition (IC50) of 5 nM. Consider `Cn1c(=O)n(Cc2ccccc2)c(=O)c2cc(C(=O)NCc3ccncc3)ccc21` [Example 14, 3-Benzyl-1-methyl-2,4-dioxo-1,2,3,4-tetrahydroquinazoline-6-carboxylic acid (4-pyridylmethyl)amide], for which the IC50 amounted to 57 nM. The compound `Cn1c(=O)n(CCc2ccccc2)c(=O)c2cc(C(=O)NCc3ccc4c(c3)OCO4)ccc21` [Example 15, 1-Methyl-2,4-dioxo-3-phenethyl-1,2,3,4-tetrahydroquinazoline-6-carboxylic acid (benzo[1,3]dioxol-5-ylmethyl)amide] yielded a concentration for half-maximal inhibition (IC50) of 2250 nM. As to `COc1ccc(Cn2c(=O)[nH]c3ccc(C(=O)NCc4ccc5c(c4)OCO5)cc3c2=O)cc1` [Example 16, 3-(4-Methoxybenzyl)-2,4-dioxo-1,2,3,4-tetrahydroquinazoline-6-carboxylic acid (benzo[1,3]dioxol-5-ylmethyl)amide], the IC50 turned out to be 42 nM. With `COc1ccc(Cn2c(=O)c3cc(C(=O)NCc4ccc5c(c4)OCO5)ccc3n(C)c2=O)cc1` [Example 17, 3-(4-Methoxybenzyl)-1-methyl-2,4-dixo-1 3,4-tetrahydroquinazoline-6-carboxylic acid (benzo[1,3]dioxo-5-ylmethyl)amide], the midpoint of inhibition, the IC50, lay at 12 nM.

In turn, `COc1ccc(CNC(=O)c2ccc3c(c2)c(=O)n(Cc2ccc(OC)cc2)c(=O)n3C)cc1` [Example 18, 3-(4-Methoxybenzyl)-1-methyl-2,4-dioxo-1,2,3,4-tetrahydroquinazoline-6-carboxylic acid 4-methoxybenzylamide] came in with an IC50 of 51 nM. `O=C(NCc1ccc2c(c1)OCO2)c1ccc2[nH]c(=O)n(Cc3ccncc3)c(=O)c2c1` [Example 20, 2,4-Dioxo-3-(pyrid-4-ylmethyl)-1,2,3,4-tetrahydroquinazoline-6-carboxylic acid (benzo[1,3]dioxol-5ylmethyl)amide] showed an IC50 of 15 nM.

Compound `O=C(NCc1ccccc1)c1ccc2[nH]c(=O)n(Cc3cccs3)c(=O)c2c1` [Example 21, 2,4-Dioxo3-(thien-2-ylmethyl)-1,2,3,4-tetrahydroquinazoline-6-carboxylic acid benzylamide] had a concentration for half-maximal inhibition (IC50) of 9 nM. Compound `Cn1c(=O)n(Cc2cccs2)c(=O)c2cc(C(=O)NCc3ccc4c(c3)OCO4)ccc21` [Example 24, 1-Methyl-2,4-dioxo-3-(thien-2-ylmethyl)-1,2,4,4-tetrahydroquinazoline-6-carboxylic acid (benzo[1,3]dioxol-5-ylmethyl)amide] showed an IC50 of 51 nM. The result for `O=C(NCc1ccc2c(c1)OCO2)c1ccc2[nH]c(=O)n(Cc3ccc(Cl)cc3)c(=O)c2c1` [Example 25, 3-(4-Chlorobenzyl)-2,4-dioxo-1,2,3,4-tetrahydroquinazoline-6-carboxylic acid (benzo[1,3]dioxol-5-ylmethyl)amide] reads 300 nM. Compound `Cn1c(=O)n(Cc2ccc(Cl)cc2)c(=O)c2cc(C(=O)NCc3ccc4c(c3)OCO4)ccc21` [Example 26, 3-(4Chlorobenzyl)-1-methyl-2,4-dioxo-1,2,3,4-tetrahydroquinazoline-6-carboxylic acid (benzo[1,3]dioxol-5-ylmethyl)amide] had an IC50 of 96 nM. `Cn1c(=O)c2cc(C(=O)NCc3ccc4c(c3)OCO4)ccc2n(C)c1=O` [Example 27, 1,3-Dimethyl-2,4-dioxo-1,2,3,4-tetrahydroquinazoline-6-carboxylic acid (benzo[1,3]dioxol-5-ylmethyl)amide] gave a half-inhibitory concentration (IC50) of 29 nM.

Turning to `Cn1c(=O)n(Cc2ccc3c(c2)OCO3)c(=O)c2cc(C(=O)NCc3ccc4c(c3)OCO4)ccc21` [Example 29, 3-(Benzo[1,3]dioxol-5-ylmethyl)-1-methyl-2,4-dioxo-1,2,3,4-tetrahydroquinazoline-6carboxylic acid (benzo[1,3]dioxol-5-ylmethyl)amide], the 50% inhibitory concentration (IC50) was determined as 28 nM. The value for `CCn1c(=O)n(Cc2ccccc2)c(=O)c2cc(C(=O)NCc3ccc4c(c3)OCO4)ccc21` [Example 30, 3-Benzyl-1-ethyl-2,4-dioxo-1,2,3,4-tetraquinazoline-6-carboxylic acid (benzo[1,3]dioxol-5-ylmethyl)amide] was 9 nM; that for `O=C(NCc1ccc2c(c1)OCO2)c1ccc2c(c1)c(=O)n(Cc1ccccc1)c(=O)n2CC1CC1` [Example 31, 3-Benzyl-1-cyclopropylmethyl-2,4-dioxo-1,2,3,4-tetrahydroquinazoline-6-carboxylic acid (benzo[1,3]dioxol-5-ylmethy)amide] was 1700 nM.

In turn, `CC(C)Cn1c(=O)n(Cc2ccccc2)c(=O)c2cc(C(=O)NCc3ccc4c(c3)OCO4)ccc21` [Example 32, 3-Benzyl-1-isobutyl-2,4-dioxo-1,2,3,4-tetrahydroquinazoline-6-carboxylic acid (benzo[1,3]dioxol-5-ylmethyl)amide] yielded a half-inhibitory concentration (IC50) of 17 nM.
